In the Kinase Knowledgebase extract (Sharma et al. 2016):

How the values were obtained:
EGFR (murine) [1] = target: EGFR (murine) (UniProt P00533); conditions: for IC50: her 14
EGFR (murine) [2] = target: EGFR (murine) (UniProt P00533); conditions: her 14
EGFR = EGFR (UniProt P00533)
EGFR, sequence (P00533 whole entry, looked up): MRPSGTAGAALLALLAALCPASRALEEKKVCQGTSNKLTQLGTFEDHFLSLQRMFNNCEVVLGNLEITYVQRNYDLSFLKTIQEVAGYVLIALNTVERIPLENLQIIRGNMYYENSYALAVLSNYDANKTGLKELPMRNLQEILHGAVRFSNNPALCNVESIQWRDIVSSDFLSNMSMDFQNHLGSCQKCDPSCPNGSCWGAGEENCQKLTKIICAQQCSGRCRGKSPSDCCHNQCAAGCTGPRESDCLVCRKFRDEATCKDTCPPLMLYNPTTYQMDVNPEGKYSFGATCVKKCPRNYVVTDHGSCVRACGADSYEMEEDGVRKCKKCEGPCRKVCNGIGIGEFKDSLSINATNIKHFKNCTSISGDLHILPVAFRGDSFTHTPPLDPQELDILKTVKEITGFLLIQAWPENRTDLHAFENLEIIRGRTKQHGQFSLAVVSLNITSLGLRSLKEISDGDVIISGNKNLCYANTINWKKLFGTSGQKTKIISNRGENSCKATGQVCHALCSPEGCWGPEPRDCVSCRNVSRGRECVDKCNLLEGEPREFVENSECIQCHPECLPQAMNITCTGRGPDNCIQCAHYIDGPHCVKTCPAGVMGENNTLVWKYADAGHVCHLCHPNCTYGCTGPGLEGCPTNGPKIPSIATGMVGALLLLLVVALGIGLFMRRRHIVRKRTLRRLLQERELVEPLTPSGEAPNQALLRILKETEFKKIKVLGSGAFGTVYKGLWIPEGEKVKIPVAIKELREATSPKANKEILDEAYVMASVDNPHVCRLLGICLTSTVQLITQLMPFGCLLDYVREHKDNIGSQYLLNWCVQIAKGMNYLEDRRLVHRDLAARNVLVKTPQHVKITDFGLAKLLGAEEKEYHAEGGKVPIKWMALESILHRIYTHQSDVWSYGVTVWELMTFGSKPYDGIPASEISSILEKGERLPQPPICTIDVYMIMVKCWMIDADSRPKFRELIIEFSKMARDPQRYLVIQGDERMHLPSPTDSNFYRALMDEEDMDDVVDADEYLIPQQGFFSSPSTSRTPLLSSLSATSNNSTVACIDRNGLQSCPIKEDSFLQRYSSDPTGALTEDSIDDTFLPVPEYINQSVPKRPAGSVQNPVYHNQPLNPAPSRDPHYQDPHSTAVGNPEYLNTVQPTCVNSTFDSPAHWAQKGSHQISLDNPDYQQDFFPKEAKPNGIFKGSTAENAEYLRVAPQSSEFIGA

EGFR (murine), sequence (P00533 whole entry, looked up): as above

## Cc1cccc(C)c1NC(=O)/C(C#N)=C/c1ccc(O)c(O)c1
EGFR (murine) [1]
  IC50: > 20 µM

## N#C/C(=C\c1ccc(O)c(O)c1)C(=O)Nc1ccccc1Cl
EGFR (murine) [1]
  IC50: 12 µM
EGFR (murine) [2]
  IC50: 35 µM

## N#CC(C#N)=Cc1ccc2[nH]ccc2c1
EGFR (murine) [2]
  IC50: > 100 µM

## N#CC(C#N)=Cc1cc[n+]([O-])cc1
EGFR
  IC50: 1300 µM

## N#CC(C#N)=C1C(=O)Nc2ccc([N+](=O)[O-])cc21
EGFR (murine) [2]
  IC50: 20 µM

## N#C/C(=C\c1ccc(O)c(O)c1)C(=O)c1ccc([N+](=O)[O-])cc1
EGFR (murine) [1]
  IC50: < 20 µM
EGFR (murine) [2]
  IC50: 20 µM

## N#C/C(=C\c1ccc(O)c(O)c1)C(=O)c1ccc(F)cc1
EGFR (murine) [1]
  IC50: 80 µM
EGFR (murine) [2]
  IC50: 20 µM

## Cc1ccc(C(=O)/C(C#N)=C/c2ccc(O)c(O)c2)cc1
EGFR (murine) [1]
  IC50: 100 µM
EGFR (murine) [2]
  IC50: 7 µM

## N#C/C(=C\c1ccc(O)c(O)c1)C(=O)c1ccccc1
EGFR (murine) [1]
  IC50: 120 µM
EGFR (murine) [2]
  IC50: 15 µM

## N#C/C(=C\c1ccc(O)c(O)c1)C(=O)N1CCc2ccccc21
EGFR (murine) [1]
  IC50: 100 µM
EGFR (murine) [2]
  IC50: 25 µM

## N#C/C(=C\c1ccc(O)c(O)c1)C(=O)NC1CCCCC1
EGFR (murine) [1]
  IC50: 50 µM

## N#CC(C#N)=C1CCc2cc(O)c(O)cc21
EGFR (murine) [1]
  IC50: > 150 µM
EGFR (murine) [2]
  IC50: 30 µM

## N#C/C(=C/c1ccc(O)c(O)c1)C(=O)NC1CCCCC1
EGFR (murine) [2]
  IC50: 15 µM

## N#C/C(=C\c1ccc(O)c(O)c1)C(=O)NCCCCc1ccccc1
EGFR (murine) [1]
  IC50: 10 µM
EGFR (murine) [2]
  IC50: 3 µM

## COc1cc(C=C(C#N)C#N)ccc1O
EGFR
  IC50: 200 µM

## CC(NC(=O)/C(C#N)=C/c1ccc(O)c(O)c1)c1ccccc1 (stereo not given)
EGFR (murine) [1]
  IC50: 10 µM
EGFR (murine) [1]; her 14, dose or concentration not given here
  inhibition: 0.88%
EGFR (murine) [2]
  IC50: 3.5 µM

## COc1cc2c(cc1O)NC(=O)C2=C(C#N)C#N
EGFR (murine) [2]
  IC50: ≥ 120 µM

## N#CC(C#N)=Cc1cccc(O)c1
EGFR
  IC50: 375 µM

## N#C/C(=C\c1ccc(O)c(O)c1)C(=O)NCCCc1ccccc1
EGFR (murine) [1]
  IC50: 25 µM
EGFR (murine) [2]
  IC50: 2.5 µM

## N#CC(C#N)=C1C(=O)Nc2cc(O)c(O)cc21
EGFR (murine) [2]
  IC50: > 16 µM

## N#C/C(=C\c1ccc(O)c(O)c1)C(N)=O
EGFR (murine) [1]
  IC50: 60 µM
EGFR
  IC50: 10 µM
EGFR (murine) [2]
  IC50: 15 µM

## N#C/C(=C/c1ccc(O)c(O)c1)C(=O)NCc1ccccc1
EGFR (murine) [2]
  IC50: 3.5 µM
